Test system: E. coli
Assay: Survival of E. coli with amoxicillin (comparison, data not shown)
Type: cell-based
Details: 500 μg/ml of amoxicillin
Experimental: In order to determine whether freeze-drying interfered with this antibiotic compatibility, Pediococcus probiotic freeze-dried products were exposed amoxicillin at 10 μg/ml, 50 μg/ml, 100 μg/ml, and 500 μg/ml, and incubated at 45° C. for […] to see if any survival of Pediococcus acidilactici NRRL B-50517. […] For comparison, E. coli had 0% survival at 500 μg/ml of amoxicillin (data not shown).

`CC1(C)S[C@@H]2[C@H](NC(=O)[C@H](N)c3ccc(O)cc3)C(=O)N2[C@H]1C(=O)O` [amoxicillin] was tested, and the “survival of E. coli” value was 0%.
